Measurements published in US20160120881A1, “USE OF BUFODIENOLIDES IN DIAGNOSING AND TREATING ESSENTIAL HYPERTENSION” (priority 2014, published 2016).

Key:
[1] = two phase I human studies, dosages calculated to have beneficial effects on human PPH (Sidharta et al.); cited from earlier work
severe PPH in rats = details: cited from earlier work
[2] = in vitro (Fedorova et al. 1997; Lopatin et al. 1999); cited from earlier work
[3] = test system: volume expansion induced hypertensive rats; details: experimental animals, volume expansion-mediated hypertension (Danchuk et al. 2008); cited from earlier work
angiotensin-infused rats [4] = experiment: Systolic blood pressure in angiotensin-infused rats (ANG); assay type: in vivo, rat; details: angiotensin infused animals given resibufogenin (ANGR) vs ANG; FIG. 1
From the text: (§1) FIG. 1. Mean systolic blood pressure (BP) values in sham (SHM) animals, angiotensin-infused rats (ANG), angiotensin infused animals given resibufogenin (ANGR), normal rats rendered hypertensive by the infusion of saline (volume expansion induced hypertensive rats)(NDS), NDS rats given resibufogenin (NDSR).
(§2) This compound differs from MBG only in the absence of a hydroxyl group in the beta-5 position of the molecule. […] Current therapy of volume expansion hypertension involves the administration of a diuretic. RBG can be considered in place of the diuretic as the therapy of choice of volume expansion-mediated hypertension or can be utilized in combination with the diuretic so that smaller dosages of each agent could be utilized. The latter strategy can result in fewer side effects from either drug.

[5] = test system: volume expansion induced hypertensive rats; experiment: Systolic blood pressure in volume expansion induced hypertensive rats (saline infusion, NDS); assay type: in vivo, rat; details: NDS rats given resibufogenin (NDSR) vs NDS; FIG. 1
From the text: as §1, §2

[6] = test system: rodent brain contusion model; experiment: Rodent brain contusion model; assay type: in vivo; details: given 1 hour after the insult
From the text: (§3) MBG is elevated in other syndromes such as preeclampsia and traumatic brain injury. It has been shown that the administration of the antagonist of MBG, resibufagenin (RBG) is therapeutically effective. […] RBG antagonizes MBG activity and may be an effective treatment for hypertension, ARDS, traumatic brain injury, and preeclampsia. Certain embodiments are directed to treating a hypertensive patient having elevated levels of MBG by administering an MBG antagonist or anti-MBG agent. In certain aspects the anti-MBG agent is resibufagenin (RBG).

[7] = test system: preeclampsia in animal models; experiment: Preeclampsia animal models; assay type: in vivo
From the text: as §3

angiotensin-infused rats [8] = details: animals subjected to angiotensin excess (Danchuk et al. 2008); cited from earlier work

In the case of CCCNS(=O)(=O)Nc1ncnc(OCCOc2ncc(Br)cn2)c1-c1ccc(Br)cc1 [macitentan], the Adverse effects [1] is given as “no adverse effects of the drug were noted”, the Pulmonary arterial hypertension (severe PPH in rats; severe PPH (Kunita-Takanezawa et al. 2014)) is given as “reversed severe pulmonary arterial hypertension” and the Adverse effects (severe PPH in rats; severe PPH) is given as “no adverse effects”. The Cardiac output (severe PPH in rats; severe PPH) was “preserved cardiac output”, the RV systolic pressure (severe PPH in rats; severe PPH) was “lowered RV systolic pressure” and the Right ventricular hypertrophy (severe PPH in rats; severe PPH) was “reversed right ventricular hypertrophy”.

In the case of C[C@]12CC[C@H](O)C[C@@]1(O)CC[C@@H]1[C@@H]2CC[C@]2(C)[C@@H](c3ccc(=O)oc3)C[C@H]3O[C@]132 [marinobufagenin (MBG), marinobufagenin], the Vasoconstrictor action [2] is given as “acts in vitro as a vasoconstrictor”.

In the case of C[C@]12CC[C@H](O)C[C@H]1CC[C@@H]1[C@@H]2CC[C@]2(C)[C@@H](c3ccc(=O)oc3)C[C@H]3O[C@]132 [resibufogenin, epoxy-3β-hydroxy-5β-bufa-20,22-dienolide], the Blood pressure elevation [3] is listed as “resolves blood pressure elevations”, the “Mean systolic blood pressure (BP)” value (angiotensin-infused rats [4]) is listed as “only in the volume expanded animals” and the “Mean systolic blood pressure (BP)” value [5] is listed as “reduced blood pressure only in the volume expanded animals”. The Tissue injury [6] was “amelioration of tissue injury”, the Preeclampsia [7] was “prevents preeclampsia” and the Elevated blood pressure (angiotensin-infused rats [8]) was “does not lower elevated blood pressure”.
